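Compound exposure: 48 hours, 5 concentrations, 96-well plates. Abbreviation: GI50, concentration required for 50% inhibition of growth. TGI marks complete inhibition of growth.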
How the values were obtained:
Assay in all cases: NCI anticancer screen, dose series, 48 h
[1] = system: CCRF-CEM leukemia
[2] = system: COLO 205 colon
[3] = system: EKVX NSCLC
[4] = system: HCC-2998 colon
[5] = system: HCT-15 colon
[6] = system: HT29 colon
[7] = system: NCI-H522 lung
[8] = system: U251 CNS
[9] = system: A498 renal
[10] = system: MDA-MB-231 breast

O=C(CCCn1ccnc1[N+](=O)[O-])NCCn1cnc([N+](=O)[O-])c1
TGI [1]: > 100 µM
TGI [2]: > 100 µM
TGI [3]: > 100 µM
TGI [4]: > 100 µM
TGI [5]: > 100 µM
TGI [6]: > 100 µM
TGI [7]: > 100 µM
TGI [8]: > 100 µM

COc1ccc(-c2cc(-c3ccccc3)c(C#N)c(=O)[nH]2)cc1
TGI [9]: > 100 µM
TGI [1]: > 100 µM
TGI [2]: > 100 µM
TGI [3]: > 100 µM
TGI [4]: > 100 µM
TGI [5]: > 100 µM
TGI [6]: > 100 µM
TGI [7]: > 100 µM
TGI [8]: > 100 µM

NNC(=O)CC(=O)Nc1ccccc1F
TGI [9]: > 100 µM
TGI [1]: > 100 µM
TGI [2]: > 100 µM
TGI [3]: > 100 µM
TGI [4]: > 100 µM
TGI [5]: > 100 µM
TGI [6]: > 100 µM
TGI [7]: > 100 µM
TGI [8]: > 100 µM

CCOC(=O)c1c(-c2[nH]c(C(=O)OCc3ccccc3)c(C)c2C(=O)OCC)[nH]c(C(=O)OCc2ccccc2)c1C
TGI [9]: > 100 µM
TGI [2]: > 100 µM
TGI [3]: > 100 µM
TGI [4]: > 100 µM
TGI [5]: > 100 µM
TGI [6]: > 100 µM
TGI [7]: > 100 µM
TGI [8]: > 100 µM

COC(=O)Nc1nc2c(OC)c(OC)c(OC)cc2[nH]1
GI50 [9]: 25.5 µM
TGI [9]: > 100 µM
GI50 [1]: 25.4 µM
TGI [1]: > 100 µM
GI50 [2]: 7.33 µM
TGI [2]: 64.7 µM
GI50 [4]: 55.6 µM
TGI [4]: > 100 µM
GI50 [5]: 5.71 µM
TGI [5]: > 100 µM
GI50 [6]: 4.63 µM
TGI [6]: > 97.1 µM
GI50 [10]: 18.7 µM
TGI [10]: > 100 µM
GI50 [7]: 13.3 µM
TGI [7]: 58.1 µM
GI50 [8]: 21.1 µM
TGI [8]: > 100 µM

CC(=O)OCCC/C(=C\c1ccc2ccccc2c1)[N+](=O)[O-]
GI50 [9]: 1.04 µM
TGI [9]: 2.39 µM
GI50 [1]: 2.19 µM
TGI [1]: 7.88 µM
GI50 [2]: 1.57 µM
TGI [2]: 3.43 µM
GI50 [4]: 1.73 µM
TGI [4]: 3.32 µM
GI50 [5]: 1.61 µM
TGI [5]: 3.42 µM
GI50 [6]: 2.3 µM
TGI [6]: 5.59 µM
GI50 [10]: 2.02 µM
TGI [10]: 4.59 µM
GI50 [7]: 0.353 µM
TGI [7]: 1.77 µM

CCOC(=O)CNC(SC)=C(C#N)C#N
TGI [9]: > 100 µM
TGI [1]: > 100 µM
TGI [2]: > 100 µM
TGI [3]: > 100 µM
TGI [4]: > 100 µM
TGI [5]: > 100 µM
TGI [6]: > 100 µM
TGI [7]: > 100 µM
TGI [8]: > 100 µM

O=C1C2C(C(=O)[N]1[Hg][c]1ccccc1)C1(Cl)C(Cl)=C(Cl)C2(Cl)C1(Cl)Cl (configuration not stated)
GI50 [9]: 2.45 µM
TGI [9]: 11.9 µM
GI50 [1]: 0.365 µM
TGI [1]: 10.4 µM
GI50 [2]: 0.809 µM
TGI [2]: 2.05 µM
GI50 [3]: 6.91 µM
TGI [3]: 25.2 µM
GI50 [4]: 2.12 µM
TGI [4]: 4.1 µM
GI50 [5]: 0.583 µM
TGI [5]: 2.2 µM
GI50 [6]: 1.81 µM
TGI [6]: 4.25 µM
GI50 [7]: 0.203 µM
TGI [7]: 0.531 µM
GI50 [8]: 1.21 µM
TGI [8]: 2.49 µM

COc1cc2ccc(CC#N)cc2cc1OC
TGI [9]: > 100 µM
TGI [1]: > 100 µM
TGI [3]: > 100 µM
TGI [6]: > 100 µM
TGI [8]: > 100 µM

COc1ccc2oc(-c3ccncc3)cc(=O)c2c1
TGI [9]: > 100 µM
TGI [1]: > 100 µM
TGI [2]: > 100 µM
TGI [4]: > 100 µM
TGI [5]: > 100 µM
TGI [6]: > 100 µM
TGI [8]: > 100 µM

CCC[CH2][Sn]1([CH2]CCC)[O]C(=O)C[S]1
GI50 [1]: 0.324 µM
TGI [1]: 1.57 µM
GI50 [2]: 1.75 µM
TGI [2]: 4.11 µM
GI50 [3]: 2.46 µM
TGI [3]: 6.53 µM
GI50 [4]: 1.83 µM
TGI [4]: 3.97 µM
GI50 [5]: 1.46 µM
TGI [5]: 3.18 µM
GI50 [6]: 2.83 µM
TGI [6]: 8.2 µM
GI50 [7]: 0.212 µM
TGI [7]: 0.814 µM
GI50 [8]: 1.33 µM
TGI [8]: 2.65 µM

C#CCOCn1cnc2ncnc(Cl)c21
TGI [9]: > 100 µM
TGI [1]: > 100 µM
TGI [2]: > 100 µM
TGI [3]: > 100 µM
TGI [4]: > 100 µM
TGI [6]: > 100 µM
TGI [7]: > 100 µM
TGI [8]: > 100 µM

CC(C)C(/C=C/c1ccccc1)=N\NC(=O)N/N=C(/C=C/c1ccccc1)C(C)C
TGI [1]: > 100 µM
TGI [2]: 44.3 µM
TGI [3]: 45.8 µM
TGI [4]: > 100 µM
TGI [5]: 80.9 µM
TGI [6]: > 100 µM
TGI [7]: 58.6 µM
TGI [8]: > 100 µM

CCOC(=O)Nc1nc2c(F)c(F)c(F)cc2s1
GI50 [9]: 31.8 µM
TGI [9]: > 100 µM
GI50 [1]: > 100 µM
TGI [1]: > 100 µM
GI50 [2]: > 100 µM
TGI [2]: > 100 µM
GI50 [4]: > 100 µM
TGI [4]: > 100 µM
GI50 [5]: > 100 µM
TGI [5]: > 100 µM
GI50 [6]: > 100 µM
TGI [6]: > 100 µM
GI50 [10]: 36.2 µM
TGI [10]: > 100 µM
GI50 [7]: 36.9 µM
TGI [7]: > 100 µM
GI50 [8]: 36.7 µM
TGI [8]: > 100 µM

CN(C)c1nc(N(C)C)nc(N(C)CN(C)c2nc(N(C)C)nc(N(C)C)n2)n1
TGI [9]: > 100 µM
TGI [1]: > 100 µM
TGI [2]: > 100 µM
TGI [3]: > 100 µM
TGI [4]: > 100 µM
TGI [5]: > 100 µM
TGI [6]: > 100 µM
TGI [7]: > 100 µM
TGI [8]: > 100 µM

COc1cc2c(c3oc(-c4ccc5c(c4)OCO5)c(O)c(=O)c13)CCC(C)(C)O2
TGI [9]: > 100 µM
TGI [1]: > 100 µM
TGI [2]: > 100 µM
TGI [3]: > 100 µM
TGI [4]: > 100 µM
TGI [5]: > 100 µM
TGI [6]: > 100 µM

COC1=NN2C(OC)(c3ccccc3)c3c(-c4ccccc4)sc(-c4ccccc4)c3C2(c2ccccc2)S1 (configuration not stated)
TGI [9]: > 100 µM
TGI [1]: > 100 µM
TGI [2]: > 100 µM
TGI [4]: > 100 µM
TGI [5]: > 100 µM
TGI [6]: > 100 µM
TGI [7]: > 100 µM
TGI [8]: > 100 µM

O=C1c2c(c3c4ccccc4n4c3c3c2c2ccccc2n3C/C=C\C4)C(=O)N1Cc1ccccc1
TGI [9]: > 100 µM
TGI [1]: > 100 µM
TGI [2]: > 100 µM
TGI [3]: > 100 µM
TGI [4]: > 100 µM
TGI [5]: > 100 µM
TGI [6]: > 100 µM
TGI [7]: > 100 µM
TGI [8]: > 100 µM

CSC(=S)N(C)NC(=O)c1cccc(C(=O)NN(C)C(=S)SC)n1
TGI [9]: > 100 µM
TGI [1]: > 100 µM
TGI [2]: > 100 µM
TGI [3]: > 100 µM
TGI [5]: > 100 µM
TGI [6]: > 100 µM
TGI [7]: 40.1 µM
TGI [8]: 54.6 µM

COc1cc(C2[C@H]3C(=O)N(c4ccc(Cc5ccc(N6C(=O)[C@@H]7ON(c8ccccc8)C(c8cc(OC)c(OC)c(OC)c8)[C@@H]7C6=O)cc5)cc4)C(=O)[C@H]3ON2c2ccccc2)cc(OC)c1OC (some centres not stated)
TGI [9]: > 100 µM
TGI [1]: > 100 µM
TGI [2]: > 100 µM
TGI [3]: > 100 µM
TGI [4]: > 100 µM
TGI [5]: > 100 µM
TGI [6]: > 100 µM
TGI [7]: > 100 µM
TGI [8]: > 100 µM

— PubChem BioAssay (NCI)
